Test results reported in patent US11464796B2, “Nicotinamide mononucleotide derivatives and their uses” (Metro International Biotech, LLC, priority 2015, dated 2022).
Counter-ions that a name gives are not always drawn.

What was measured:
NAD+ levels in liver = assay: NAD+ level in liver of mice after a single oral dose (LC/MS), ratio to vehicle control; type: in vivo; conditions: single oral gavage in PBS, generally 500 mg/ml (in some cases 250 mg/kg or ethanol/PBS/PEG400), fasted male C57/BL6 mice; for ratio of mean NAD+ concentration in treated mice compared to vehicle control mice, 4 hr liver: 4 hr post-dose; for ratio of mean NAD+ concentration in treated mice compared to vehicle control mice, 8 hr liver: 8 hr post-dose; for ratio of mean NAD+ concentration in treated mice compared to vehicle control mice, 24 hr liver: 24 hr post-dose
Protocol: (§1) As the compounds disclosed herein can act as prodrugs for NMN, their biological activity was assessed in vivo by measuring the ability to elevate NAD+ levels in liver and skeletal muscle. These tissues were selected for pharmacodynamics studies due to their relevance for the treatment of metabolic diseases. In general, C57/BL6 mice were fasted from 16 hours, then administered a […] oral dose of a disclosed compound in PBS buffer by oral gavage. In some cases, the dose was 250 mg/kg or in an alternate vehicle: ethanol/PBS/PEG400 (10/30/60). After dosing, the mice were sacrificed at pre-set time points after dosing (generally 4, 8 and 24 hours). The liver and skeletal tissues were removed and flash frozen. After some period of frozen storage, tissue homogenates were prepared. The level of NAD+ was quantified using LC/MS methods.
(§2) For bioanalysis, a method of standard addition was used to quantify the NAD. Each homogenate was divided and certain aliquots had known concentrations of exogenous NAD added. The NAD present in the original sample was then calculated by linear regression. Data are presented as a ratio of mean NAD concentration in treated mouse tissues to mean NAD concentration in the vehicle control group tissues at the paired time points.
(§3) Mixtures of compound and PBS, pH 7 were formulated ˜1 hour before dosing and remained stirring until dose completion. Residual formulated test materials were stored at −20±5° C. until discarded. Naïve male C57/BL6 mice at ˜25 g at dose initiation, age as appropriate for weight were assigned to dose groups of six animals per dose. Dosing treatments were administered via a single oral gavage dose (PO) The dose volume for each animal (5 mL/kg) was based on the most recent body measurements taken the morning of dosing. Animals were fasted at least 16 hrs prior to dose, with food returned at least 4 hours post dose.
(§4) Liver and skeletal muscle were collected and analyzed for nicotinamide adenine dinucleotide (NAD) at 0, 4, 8, and 24 hours post-dose. For each mouse, the entire liver was removed, rinsed with saline, blotted dry and frozen at −70° C. to store for NAD concentration analysis. Also, the soleus skeletal muscle was removed from the gastrocnemius, rinsed with saline, blotted dry and frozen at −70° C. to store for NAD concentration analysis.
(§5) • 1. Add 5× (tissue wt.*5)mL 0.1M ZnSO4 into all tubes. • 2. Add 5× (tissue wt*5)mL Methanol into all tubes. • 3. Homogenize each sample until completely liquid. • 4. Vortex each sample. Tissue Extraction Procedure • 1. On ice, aliquot 20 μL of standards, control blanks, and matrix blanks into a 96-well plate. • 2. Aliquot 20 μL of sample into sample wells. • 3. Add 1004, of IS in 80:20 Methanol:water into each well, except blanks add 100 μL of blank 80:20 Methanol:Water. • 4. Cover plate and vortex samples. Centrifuge for 10 minutes at 3300 rpm. • 5. Transfer 80 μL of supernatant into a clean 96-well plate. • 6. Add 80 μL of LC-MS water to all wells. • 7. Cover and vortex. The concentration of NAD+ in the tissues was determined by LC/MS. The conditions are as follows:
(§6) The ratio of mean NAD+ concentration in the liver and skeletal tissues of treated mice compared to vehicle control mice are given in Table 5. The data is given for the 4, 8, and 24 hour time points.

[1] = tested on: NAD+ levels in skeletal muscle; assay: NAD+ level in skeletal muscle of mice after a single oral dose (LC/MS), ratio to vehicle control; type: in vivo; conditions: soleus skeletal muscle, single oral gavage in PBS, generally 500 mg/ml (in some cases 250 mg/kg or ethanol/PBS/PEG400), fasted male C57/BL6 mice; for ratio of mean NAD+ concentration in treated mice compared to vehicle control mice, 4 hr skeletal: 4 hr post-dose; for ratio of mean NAD+ concentration in treated mice compared to vehicle control mice, 8 hr skeletal: 8 hr post-dose; for ratio of mean NAD+ concentration in treated mice compared to vehicle control mice, 24 hr skeletal: 24 hr post-dose
Protocol: as §1, §2, §3, §4, §5, §6

| SMILES | ratio of mean NAD+ concentration in treated mice compared to vehicle control mice, 4 hr liver (NAD+ levels in liver) | ratio of mean NAD+ concentration in treated mice compared to vehicle control mice, 8 hr liver (NAD+ levels in liver) | ratio of mean NAD+ concentration in treated mice compared to vehicle control mice, 24 hr liver (NAD+ levels in liver) | ratio of mean NAD+ concentration in treated mice compared to vehicle control mice, 4 hr skeletal [1] | ratio of mean NAD+ concentration in treated mice compared to vehicle control mice, 8 hr skeletal [1] | ratio of mean NAD+ concentration in treated mice compared to vehicle control mice, 24 hr skeletal [1] |
| --- | --- | --- | --- | --- | --- | --- |
| CCOP(=O)(OCC)OCC1OC([n+]2cccc(C(N)=O)c2)C(O)C1O (stereo not drawn) [Compound 19, 3-Carbamoyl-1-(5-(((diethoxyphosphoryl)oxy)methyl)-3,4-dihydroxytetrahydrofuran-2-yl)pyridin-1-ium Chloride] | 1 | 1 | 1 | 0.8 | 1.2 | 0.1 |
| NC(=O)c1ccc[n+]([C@@H]2OC(COP3(=O)OCCC(c4cc(F)cc(F)c4)O3)[C@@H](O)[C@H]2O)c1.O=C([O-])C(F)(F)F (stereo partly drawn) [Compound 2, 1-((2R,3R,4S)-5-(((4-(3,5-Difluorophenyl)-2-oxido-1,3,2-dioxaphosphinan-2-yl)oxy)methyl)-3,4-dihydroxytetrahydrofuran-2-yl)-1λ^4-pyridine-3-carboxamide Trifluoroacetate Salt] | 2.0 | 1.6 | 1.8 | 0.9 | 1.0 | 1.4 |
| CC(C)OC(=O)[C@H](C)NP(=O)(OCC1O[C@@H]([n+]2cccc(C(N)=O)c2)[C@H](O)[C@@H]1O)Oc1ccccc1 (stereo partly drawn) [Compound 4, Isopropyl ((((3S,4R,5R)-5-(3-carbamoyl-1λ4-pyridin-1-yl)-3,4-dihydroxytetrahydrofuran-2-yl)methoxy)(phenoxy)phosphoryl)-L-alaninate Trifluoroacetate Salt] | 1.0 | 1.7 | 1.8 | 0.9 | 1.4 | 1.1 |
| CCCCCCCCCCCCCCCOCCCOP(=O)(OC)OCC1OC([n+]2cccc(C(N)=O)c2)C(O)C1O (stereo not drawn) [Compound 21, 3-Carbamoyl-1-(3,4-dihydroxy-5-(((methoxy(3-(pentadecyloxy)propoxy)phosphoryl)oxy)methyl)tetrahydrofuran-2-yl)pyridin-1-ium Trifluoroacetate Salt] | 2.2 | 2.1 | 1.7 | 1.3 | 2.4 | 3.4 |
| CC(C)(C)C(=O)SCCOP(=O)(NCc1ccccc1)OCC1OC([n+]2cccc(C(N)=O)c2)C(O)C1O (stereo not drawn) [Compound 6, 1-(5-((((Benzylamino)(2-(pivaloylthio)ethoxy)phosphoryl)oxy)methyl)-3,4-dihydroxytetrahydrofuran-2-yl)-3-carbamoylpyridin-1-ium Trifluoroacetate Salt] | 4.3 | 6.6 | 3.5 | 1.3 | 1.7 | 2.6 |
| CC(NP(=O)(OCC1O[C@@H]([n+]2cccc(C(N)=O)c2)[C@H](O)[C@@H]1O)Oc1cccc2ccccc12)C(=O)OCc1ccccc1 (stereo partly drawn) [Compound 8, 1-((2R,3R,4S)-5-(((((1-(Benzyloxy)-1-oxopropan-2-yl)amino)(naphthalen-1-yloxy)phosphoryl)oxy)methyl)-3,4-dihydroxytetrahydrofuran-2-yl)-3-carbamoylpyridin-1-ium Trifluoroacetate Salt] | 1.2 | 1.0 | 0.9 | 1.0 | 0.8 | 0.8 |
| CCC(CC)COC(=O)C(C)NP(=O)(OCC1O[C@@H]([n+]2cccc(C(N)=O)c2)[C@H](O)[C@@H]1O)Oc1ccccc1 (stereo partly drawn) [Compound 9, 2-Ethylbutyl ((((3S,4R,5R)-5-(3-carbamoyl-1λ^4-pyridin-1-yl)-3,4-dihydroxytetrahydrofuran-2-yl)methoxy)(phenoxy)phosphoryl)alaninate Trifluoroacetate Salt] | 0.8 | 0.8 | 1.3 | 1.88 | 1.34 | 0.96 |
